In PubChem BioAssay (NCI):
Values joined by “and” are separate entries in the source; they are usually repeats but may differ in a detail not shown here. Equal entries are not always repeated.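 Each compound was tested at five concentrations against cells in 96-well plates for 48 hours. Abbreviation: GI50, concentration required for 50% inhibition of growth. TGI: total growth inhibition.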

How the values were obtained:
Assay in all cases: NCI tumour cell line growth inhibition, 48 h
NCI-H522 lung = system: NCI-H522 lung
IGROV1 ovarian = system: IGROV1 ovarian
HS 578T breast = system: HS 578T breast
OVCAR-3 ovarian = system: OVCAR-3 ovarian
SF-268 CNS = system: SF-268 CNS
CCRF-CEM leukemia = system: CCRF-CEM leukemia
LOX IMVI melanoma = system: LOX IMVI melanoma
SF-295 CNS = system: SF-295 CNS
A498 renal = system: A498 renal
MDA-MB-231 breast = system: MDA-MB-231 breast

Structure (SMILES)	GI50 (NCI-H522 lung)	TGI (NCI-H522 lung)	GI50 (IGROV1 ovarian)	TGI (IGROV1 ovarian)	GI50 (HS 578T breast)	TGI (HS 578T breast)	GI50 (OVCAR-3 ovarian)	TGI (OVCAR-3 ovarian)	GI50 (SF-268 CNS)	TGI (SF-268 CNS)	GI50 (CCRF-CEM leukemia)	TGI (CCRF-CEM leukemia)	GI50 (LOX IMVI melanoma)	TGI (LOX IMVI melanoma)	GI50 (SF-295 CNS)	TGI (SF-295 CNS)	GI50 (A498 renal)	TGI (A498 renal)	GI50 (MDA-MB-231 breast)	TGI (MDA-MB-231 breast)
COC1=CC(c2ccc[nH]2)=N/C1=C\c1[nH]c(C)c(C(=O)CCC(=O)Oc2ccc3c(c2)CCC2C3CC[C@]3(C)C(=O)CC[C@@H]23)c1C (some centres undefined)	4.71 µM	60.1 µM	8.3 µM	> 100 µM	14.2 µM	> 100 µM	17.5 µM	> 100 µM	5.58 µM	> 100 µM	0.527 µM	> 100 µM	0.998 µM	3.35 µM	21.4 µM	85.3 µM	7.94 µM	57.4 µM	0.276 µM	1.19 µM
COc1ccc(C2C3=C(NC(=O)C2C#N)c2ccc4ccccc4c2OCC3)cc1 (centres undefined)	74.5 µM	> 100 µM	> 100 µM	> 100 µM	22.6 µM	56.6 µM	70.4 µM	> 100 µM	23.3 µM	76.2 µM	> 100 µM	> 100 µM	18.6 µM	37.5 µM	27.4 µM	> 100 µM	10.6 µM	64.6 µM	17.9 µM	43.2 µM
COc1ccc(-c2cc3cccc(OC)c3c(=O)o2)cc1OC	48.6 µM	> 100 µM	> 100 µM	> 100 µM	12.7 µM	> 100 µM	43.4 µM	> 100 µM	39.7 µM	> 100 µM	30.9 µM	> 100 µM	11.5 µM	> 100 µM	33.8 µM	> 100 µM	81.7 µM	> 100 µM	22.8 µM	> 100 µM
O=C(CC12CC3CC(CC(C3)C1)C2)NCCOCCOCCNC(=O)c1cc2c(o1)C(=O)c1ccccc1C2=O	1.34 µM	3.04 µM	1.41 µM	3.21 µM	1.43 µM	5.18 µM	0.243 µM	0.72 µM	1.68 µM	3.9 µM	2.27 µM	13.1 µM	0.526 µM	2.03 µM	0.663 µM	1.94 µM	1.6 µM	3.16 µM	1.53 µM	5.68 µM
COc1ccc2c(c1)O/C(=C\c1cccc(OCC(=O)Nc3nc4ccccc4s3)c1)C2=O	0.718 µM	2.74 µM	0.121 µM	0.303 µM	13.8 µM	70.1 µM	3.16 µM	9.56 µM	4.83 µM	11 µM	0.419 µM	1.25 µM	0.328 µM	1.05 µM	11.4 µM	> 71.7 µM	10.1 µM	> 93.3 µM	7.35 µM	> 23.1 µM
CS(=O)(=O)c1nccc(-c2c(-c3cccc(OCc4ccc(F)cc4)c3)nc3sccn23)n1	8.15 µM	> 100 µM	11.2 µM	> 100 µM	14.3 µM	> 100 µM	19 µM	> 100 µM	40.1 µM	> 100 µM	8.73 µM	> 100 µM	4.7 µM	> 100 µM	> 100 µM	> 100 µM	18.2 µM	65.2 µM	34.3 µM	> 100 µM
c1ccc2c(c1)O[As](O[As]1Oc3ccccc3O1)O2	0.548 µM	2.06 µM	1.56 µM	10.5 µM	3.47 µM	65.9 µM	2.35 µM	7.41 µM	2.47 µM	12.1 µM	0.434 µM	10.8 µM	2.3 µM	10.3 µM	6.48 µM	22.9 µM	1.6 µM	5.64 µM	2.11 µM	10.7 µM
COC1/C=C/O[C@@]2(C)Oc3c(C)c(O)c4c(O)c(cc(O)c4c3C2=O)NC(=O)/C(C)=C\C=C\[C@H](C)C(O)[C@@H](C)[C@@H](O)[C@@H](C)[C@H](OC(C)=O)[C@@H]1C (some centres undefined)	2.72 µM	11.2 µM and 20.5 µM	16 µM	29.5 µM and 56.3 µM	24.2 µM	64.6 µM and 114 µM	2.6 µM and 8.56 µM	15.1 µM and 22.9 µM	18.3 µM	33.4 µM and 61.7 µM	0.504 µM	4.07 µM and 32.6 µM	–	26.1 µM and 29.5 µM	–	196 µM	–	96.9 µM	14.2 µM	27.2 µM and 56.2 µM
O=S(=O)(c1cccc(C(F)(F)F)c1)N1c2ccccc2-n2cccc2C1c1cccnc1 (centres undefined)	–	> 53.6 µM	–	> 100 µM	–	> 76.3 µM	–	> 55 µM	–	> 66 µM	–	> 51.6 µM	–	> 68.7 µM	–	> 100 µM	–	> 64 µM	–	> 54.5 µM
Cc1c(Cl)cccc1NC(=O)CC1Sc2ccccc2NC1=O (centres undefined)	–	64.7 µM and 79.7 µM	20 µM and 45.1 µM	65 µM and > 100 µM	–	25.3 µM	–	31.2 µM and 41.9 µM	18.4 µM and 37.1 µM	46.6 µM and > 100 µM	–	> 100 µM	–	83.8 µM and > 100 µM	–	58.9 µM and > 100 µM	–	38.2 µM and 37.5 µM	–	32.1 µM
COc1cc(OC)c(-c2cc(=O)c3c(OC)c(OC)c(OC)c(OC)c3o2)cc1OC	–	> 100 µM	–	> 100 µM	–	> 100 µM	–	> 100 µM	–	> 100 µM	–	> 100 µM	–	> 100 µM	–	> 100 µM	–	> 100 µM	–	> 100 µM
O=C1C=C(SCCO)C(=O)c2ccccc21	1.89 µM	3.97 µM	3.61 µM	14.7 µM	2.21 µM	7.5 µM	1.37 µM	2.68 µM	1.92 µM	5.07 µM	1.14 µM	4.79 µM	1.53 µM	3.26 µM	1.62 µM	3 µM	13.9 µM	27 µM	1.42 µM	3.89 µM
O=C(NNc1nc2cc(F)ccc2n2c(CN3CCOCC3)ccc12)c1ccccc1	0.369 µM	3.52 µM	0.139 µM	1.47 µM	1.51 µM	8.05 µM	0.242 µM	1.65 µM	0.243 µM	2.69 µM	0.0978 µM	4.44 µM	0.119 µM	1.43 µM	0.181 µM	1.52 µM	0.495 µM	2.26 µM	0.443 µM	2.45 µM
